Assay results from patent publication US5990163A, “Selective modulation of processes mediated by retinoid X receptors, and compounds useful therefor” (The Salk Institute for Biological Studies, priority 1995, dated 1999).
Entries after “also recorded” stand apart in the source; their conditions may differ. Each block holds one compound with its values, some of them ahead of it.

Legend:
hRXRα [1] = biological target: T1, hRXRα (Homo sapiens, UniProt P19793); test: Cotransfection assay in Schneider cells, RXR expression plasmid and ADH-CRBPII-LUC luciferase reporter; type: cell-based; conditions: for activation of RXR (transcription from the reporter construct), in words: Schneider cells, ADH-CRBPII-LUC
T1 sequence (P19793 1-462): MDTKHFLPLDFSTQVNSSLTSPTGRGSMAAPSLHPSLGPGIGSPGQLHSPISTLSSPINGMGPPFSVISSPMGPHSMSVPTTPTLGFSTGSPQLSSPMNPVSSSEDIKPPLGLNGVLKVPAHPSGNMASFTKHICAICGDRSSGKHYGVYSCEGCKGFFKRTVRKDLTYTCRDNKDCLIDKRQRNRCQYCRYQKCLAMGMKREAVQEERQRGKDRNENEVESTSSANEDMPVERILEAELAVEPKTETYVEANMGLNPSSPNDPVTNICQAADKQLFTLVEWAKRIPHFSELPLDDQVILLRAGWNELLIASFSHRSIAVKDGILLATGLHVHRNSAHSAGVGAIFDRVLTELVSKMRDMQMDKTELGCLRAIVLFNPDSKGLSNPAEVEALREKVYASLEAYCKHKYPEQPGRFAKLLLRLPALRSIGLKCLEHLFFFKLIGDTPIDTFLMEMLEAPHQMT
Method: Candidate ligands were initially tested in Schneider cells cotransfected with an RXR expression plasmid and a luciferase reporter plasmid containing an RXR specific response element.
Cell lysates were then assayed for luciferase activity, which is expressed as relative light units (RLU) and represents the mean of triplicate assays (±SEM) normalized to β-galactosidase as an internal control. […] After 24 hours, ligand was added to the transfected cells. Thirty six hours later, the cells were harvested and extracts prepared and assayed for enzyme activity as described by Heyman et al., supra, and Clayton, supra. Luciferase values were normalized for transfection and harvesting efficiency by measuring β-galactosidase activity, and the results reported as average relative light units (RLU) for at least two replicates.

hRXRα [2] = biological target: T1, hRXRα; test: Competitive ligand binding, competition for [3H]9cRA binding; conditions: 40 nM [3H]9cRA, increasing concentrations of unlabelled compound
Method: Binding analysis was performed as described by Boehm et al., in J. Med. Chem. 37:2930-2941 (1994). Compounds used in these studies were prepared according to Wecksler and Norman (Anal. Biochem. 92:314-323 (1979).

[3] = previous studies (Quistad et al.); a major product is methoprene acid; cited from earlier work
mouse RXRα = test: Transactivation dose response, CRBPII-LUC reporter in Schneider and CV-1 cells; type: cell-based; conditions: Schneider cells and CV-1 cells
Method: (§1) Cell lysates were then assayed for luciferase activity, which is expressed as relative light units (RLU) and represents the mean of triplicate assays (±SEM) normalized to β-galactosidase as an internal control. Thus, Schneider cells in 6-well culture plates were co-transfected with 0.5 μg ADH-CRBPII-LUC, 0.5 μg A5C-βgal and 1 μg of receptor plasmid (either A5C-mRXRα, A5C-mRXRβ, A5C-mRXRγ or A5C-hRXRα) by the CaPO4 precipitation method, as described by Heyman et al., in Cell 68:397 (1992) and Clayton in Aspects of Terpenoid Chemistry and Biology, T. W. Goodwin, ed. (Academic Press, London) pp. 1-23 (1971). After 24 hours, ligand was added to the transfected cells. Thirty six hours later, the cells were harvested and extracts prepared and assayed for enzyme activity as described by Heyman et al., supra, and Clayton, supra. Luciferase values were normalized for transfection and harvesting efficiency by measuring β-galactosidase activity, and the results reported as average relative light units (RLU) for at least two replicates.
(§2) To further test the ability of methoprene acid to function as an RXR ligand, the transactivation properties of methoprene on all three RXR subtypes was investigated. FIG. 3 presents the dose responses of the three RXR subtypes to methoprene acid in insect Schneider cells (FIG. 3A), or mammalian CV-1 cells (FIG. 3B) cotransfected with expression plasmids for mouse RXRα, RXRβ, or RXRγ and the reporter plasmid ADH-CRBPII-LUC (for Schneider cells) or TK-CRBPII-LUC (for CV-1 cells).
(§3) Experiments in Schneider cells were conducted as described in Example 1. Experiments in CV-1 cells were conducted as follows. CV-1 cells were seeded into 48-well sulture dishes and co-transfected with 50 ng of TK-CRBPII-LUC reporter plasmid, 50 ng of CMX-βgal expression plasmid, and 25 ng of expression plasmid for receptor (either CMX-mRXRα, CMX-mRXRβ or CMX-mRXRγ) by the CaPO4 precipitation method, as described by Heyman et al., supra and Clayton supra. […] Luciferase activity was determined as described by Unsworth et al., in Life Sciences 15:1649 (1974).

mouse RXRβ = test: as above; type: cell-based; conditions: Schneider cells and CV-1 cells
Method: as §1, §2, §3

mouse RXRγ = test: as above; type: cell-based; conditions: Schneider cells and CV-1 cells
Method: as §1, §2, §3

GAL4-hRARα = biological target: T2, GAL4-hRARα (Homo sapiens, UniProt P10276); test: Cotransfection with GAL4 chimeric receptor, TK-MH100×4-LUC reporter in CV-1 cells; type: cell-based; conditions: 10^-5 M ligand
T2 construct: CMX plasmid, CV-1 cells, TK-MH100x4-LUC
T2 sequence (P10276 203-462): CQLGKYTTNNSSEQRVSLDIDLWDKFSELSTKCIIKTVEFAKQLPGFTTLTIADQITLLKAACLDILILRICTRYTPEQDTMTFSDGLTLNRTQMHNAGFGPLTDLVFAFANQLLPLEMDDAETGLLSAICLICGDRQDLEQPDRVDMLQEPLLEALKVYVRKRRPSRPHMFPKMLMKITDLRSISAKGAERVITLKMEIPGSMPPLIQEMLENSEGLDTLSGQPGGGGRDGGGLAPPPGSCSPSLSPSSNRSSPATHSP
Excerpt: (§4) Thus, CV-1 cells were cotransfected with the expression plasmid CMX-GAL4-hRXRα, CMX-GAL4-hRARα, CMX-GAL4-RARβ or CMX-GAL4-RARγ and the reporter plasmid TK-MH100×4-LUC. The constructs consisted of the GAL4 DNA binding domain (amino acids 1-147; see Sadowski and Ptashne in Nucl. Acids Res. 17:7539 (1989)) ligated in frame to the ligand binding and C-terminal activation domains of hRARα (amino acids 203-462; see Giguere et al., in Nature 330:624 (1987), hRARβ (amino acids 178-448; see Brand et al., in Nature 332:850 (1988), RARγ (amino acids 187-454; see Ishikawa et al., in Mol. Endo. 4:837 (1990) and RXRα (amino acids 203-462; see Mangelsdorf et al., in Nature 345:224 (1990). These GAL4-receptor chimeras were then introduced into CMX expression vectors (see Umesono et al., in Cell 65:1255 (1991)). The GAL4-responsive reporter plasmid, TK-MH100×4-LUC, was constructed by inserting 4 copies of the yeast UASG enhancer (i.e., MH100; see Webster et al., in Cell 52:169 (1988)) into the luciferase reporter plasmid TK-LUC. CV-1 cells seeded into 48 well culture plates were co-transfected with 80 ng of the reporter plasmid TK-Mh100×4-LUC, 50 ng of CMX-βgal expression plasmid, and 80 ng of receptor expression plasmid (either CMX-GAL4 as a control, CMX-GAL4-hRARα, CMX-GAL4-hRARβ, CMX-GAL4-hRARγ or CMX-GAL4-hRXRα). […] Cotransfections, ligand addition and luciferase assays were performed as described in Example 3.
(§5) The above-described chimeric proteins can bind to a GAL4 upstream activation sequence (UASG) in the promoter of a luciferase reporter, but can only activate transcription in the presence of the hybrid receptor's ligand. The distinct advantage of using the GAL4-receptor system, instead of the wild-type receptors and response elements, is that the GAL4-hybrids provide a sensitive and effective means for assaying receptor/ligand interactions, even in the presence of the cell's endogenous wild-type receptors.

GAL4-hRARβ = biological target: T3, GAL4-hRARβ (Homo sapiens, UniProt P10826); test: as above; type: cell-based; conditions: 10^-5 M ligand
T3 construct: CMX plasmid, CV-1 cells, TK-MH100x4-LUC
T3 sequence (P10826 185-455): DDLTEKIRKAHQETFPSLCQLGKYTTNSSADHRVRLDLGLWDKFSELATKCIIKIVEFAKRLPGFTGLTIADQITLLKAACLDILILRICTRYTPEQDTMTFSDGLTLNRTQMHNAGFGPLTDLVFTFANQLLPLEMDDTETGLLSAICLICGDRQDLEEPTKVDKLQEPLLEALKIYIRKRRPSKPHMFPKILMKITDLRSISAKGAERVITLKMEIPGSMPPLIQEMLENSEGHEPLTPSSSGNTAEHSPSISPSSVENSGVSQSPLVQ
Excerpt: as §4, §5

GAL4-hRARγ = biological target: T4, GAL4-hRARγ (Homo sapiens, UniProt P13631); test: as above; type: cell-based; conditions: 10^-5 M ligand
T4 construct: CMX plasmid, CV-1 cells, TK-MH100x4-LUC
T4 sequence (P13631 187-454): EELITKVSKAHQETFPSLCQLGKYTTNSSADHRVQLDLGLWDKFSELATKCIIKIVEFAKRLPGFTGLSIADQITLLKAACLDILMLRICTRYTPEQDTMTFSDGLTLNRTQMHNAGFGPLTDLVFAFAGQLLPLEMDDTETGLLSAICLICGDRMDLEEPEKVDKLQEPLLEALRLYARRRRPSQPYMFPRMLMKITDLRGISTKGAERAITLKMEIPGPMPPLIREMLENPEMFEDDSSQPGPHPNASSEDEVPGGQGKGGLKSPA
Excerpt: as §4, §5

GAL4-hRXRα = biological target: T5, GAL4-hRXRα (Homo sapiens, UniProt P19793); test: as above; type: cell-based; conditions: 10^-5 M ligand
T5 construct: CMX plasmid, CV-1 cells, TK-MH100x4-LUC
T5 sequence (P19793 203-462): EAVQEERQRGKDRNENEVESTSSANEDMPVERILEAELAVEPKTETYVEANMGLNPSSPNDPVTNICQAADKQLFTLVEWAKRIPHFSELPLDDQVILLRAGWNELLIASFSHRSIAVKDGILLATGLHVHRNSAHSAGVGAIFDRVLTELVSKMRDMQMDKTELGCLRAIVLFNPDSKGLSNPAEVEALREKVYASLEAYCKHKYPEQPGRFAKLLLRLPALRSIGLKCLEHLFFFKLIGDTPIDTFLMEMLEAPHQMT
Excerpt: as §4, §5

RXR-alpha = test: Expression of genes under the control of regulatory elements of apolipoprotein AI; type: cell-based
[4] = 36 h, read-out: induction of luciferase reporter above methanol control

SMILES: COC(C)(C)CCCC(C)C/C=C/C(C)=C/C(=O)OC(C)C (stereo not drawn) [methoprene, isopropyl (2E,4E)-11-methoxy-3,7,11-trimethyl-2,4-dodecadienoate]
- fold induction at 100 µM (hRXRα [1]; [4]): 80
- activation of RXR (transcription from the reporter construct), in words (hRXRα [1]): activate RXR
- competition for [3H]9cRA binding to RXRα, in words (hRXRα [2]): unable to displace 9cRA binding at any concentration; also recorded: unable to competitively bind RXR at any concentration
- metabolism within cells [3]: metabolized within cells to several products

- activation of RXR (transcription from the reporter construct), in words (hRXRα [1]): do not activate RXR
SMILES: COC(=O)/C=C(\C)CC/C=C(\C)CCC1OC1(C)C (stereo not drawn) [JH III, methyl (2E,6E)-10,11-epoxy-3,7,11-trimethyl-2,6dodecadienoate, reference compound]

- activation of RXR (transcription from the reporter construct), in words (hRXRα [1]): do not activate RXR
SMILES: CC(C)=CCC/C(C)=C/CC/C(C)=C/CO [farnesol, (2E,6E,10E)-3,7,11-trimethyl-2,6,10-dodecatrienol, reference compound]

SMILES: COC(C)(C)CCCC(C)C/C=C/C(C)=C/C(=O)O (stereo not drawn) [methoprene acid]
- fold induction at 10 µM (hRXRα [1]; [4]): 95
- competition for [3H]9cRA binding to RXRα, in words (hRXRα [2]): competes well
- response of RXRα (transactivation), in words (mouse RXRα): respond strongly
- response of RXRβ (transactivation), in words (mouse RXRβ): responds only weakly
- response of RXRγ (transactivation), in words (mouse RXRγ): respond strongly
- activation of transcription with GAL4-RARα, in words (GAL4-hRARα): specific for activation of only the GAL4-RXR
- activation of transcription with GAL4-RARβ, in words (GAL4-hRARβ): specific for activation of only the GAL4-RXR
- activation of transcription with GAL4-RARγ, in words (GAL4-hRARγ): specific for activation of only the GAL4-RXR
- activation of transcription with GAL4-RXR, in words (GAL4-hRXRα): specific for activation of only the GAL4-RXR
- effect of RXR-alpha in the presence of ligand on expression of genes under apolipoprotein AI regulatory elements (RXR-alpha): strong effect

SMILES: CCOC(=O)/C=C(C)/C=C/CC(C)CCCC(C)C (stereo not drawn) [hydroprene, ethyl (2E,4E)-3,7,11-trimethyl-2,4-dodecadienoate]
- activation of RXR (transcription from the reporter construct), in words (hRXRα [1]): activate RXR
- competition for [3H]9cRA binding to RXRα, in words (hRXRα [2]): not

SMILES: CC(/C=C/CC(C)CCCC(C)C)=C\C(=O)O (stereo not drawn) [hydroprene acid]
- fold induction at 100 µM (hRXRα [1]; [4]): 81
- competition for [3H]9cRA binding to RXRα, in words (hRXRα [2]): observed to bind RXR

SMILES: C/C(=C\c1ccc(C(=O)O)cc1)c1ccc2c(c1)C(C)(C)CCC2(C)C [TTNPB, (E)-4-[2-(5,6,7,8-tetrahydro-5,5,8,8-tetramethyl-2-napthalenyl)-1-propenyl]benzoic acid, reference compound]
- activation of transcription with GAL4-RXR, in words (GAL4-hRXRα): exclusive response

SMILES: CC1=C(/C=C/C(C)=C\C=C\C(C)=C\C(=O)O)C(C)(C)CCC1 [9cRA, 9-cis-retinoic acid, reference compound]
- activation of transcription with GAL4-RARα, in words (GAL4-hRARα): can activate transcription
- activation of transcription with GAL4-RARβ, in words (GAL4-hRARβ): can activate transcription
- activation of transcription with GAL4-RARγ, in words (GAL4-hRARγ): can activate transcription
